Common to all, as to assay type: biochemical
The target in assay [1] is T1, MMP-9 (Homo sapiens, UniProt P14780).
T1 construct: purchased Abchem (so in the source)
Put plainly: MMP9 Inhibitor Screening Assay Kit (ab139448), colorimetric thiopeptide substrate, OD412. Conditions: compound at 50 nM; for remaining activity at 0.05 µM: remaining enzyme activity, untreated group = 100%, n=2. On the procedure:
Enzyme activity (%) at the same concentration was compared with treatment with 0.5 µM MMP-1 activity and 50 nM MMP-2 and MMP-9 activity (n=2). Here, enzyme activity (%) refers to the enzyme activity (%) of the experimental group when the untreated group is considered to have 100% enzyme activity. To evaluate the effect of the new compound on the enzyme activity, the color change was measured by following the provided protocol using a kit sold by Abchem as follows. Enzyme activity was obtained by comparing absorbance per minute with the untreated group. • MMP1 Inhibitor Screening Assay Kit (ab139443) • MMP2 Inhibitor Screening Assay Kit (ab139446) • MMP9 Inhibitor Screening Assay Kit (ab139448) As MMP activity increases, the substrate is decomposed and the OD412 level increases. Therefore, the change in OD412 level (OD value) per minute was measured and the value was obtained according to the enzyme activity calculation formula below. Here, OD412 means optical density or absorbance at 412 nm. • Thiopeptide (Ac-PLG-[2-mercapto-4-methyl-pentanoyl]-LG-OC2H5) as a chromogenic substrate. • The MMP cleavage site peptide bond was replaced by the thioester bond of the thiopeptide. • Hydrolysis of this bond by MMP generates a sulfhydryl group, which reacts with DTNB [5,5'-dithiobis(2-nitrobenzoic acid), Ellman's reagent] to form 2-nitro-5-thiobenzoic acid. , which can be measured by its absorbance at 412 nm. (ε=13,600 M^-1cm^-1 above pH 6.0) New compound enzyme activity(%) = (Vnew compound/Vuntreated group)*100 [formula] V = change in OD value per minute

In assay [2] the target is T1, MMP-9. The assay is described as above. As to conditions: T-23~34 at 0.5 uM; for inhibition at 0.5 µM: read-out: MMP-9 (%) (inhibitory efficacy, high concentration); for remaining activity at 0.5 µM: remaining enzyme activity, read-out: MMP-9 (%) (enzyme activity, high concentration).
Assay [3] addresses T2, MMP-2 (Homo sapiens, UniProt P08253).
T2 construct: purchased Abchem (so in the source)
T2 sequence (P08253 110-660): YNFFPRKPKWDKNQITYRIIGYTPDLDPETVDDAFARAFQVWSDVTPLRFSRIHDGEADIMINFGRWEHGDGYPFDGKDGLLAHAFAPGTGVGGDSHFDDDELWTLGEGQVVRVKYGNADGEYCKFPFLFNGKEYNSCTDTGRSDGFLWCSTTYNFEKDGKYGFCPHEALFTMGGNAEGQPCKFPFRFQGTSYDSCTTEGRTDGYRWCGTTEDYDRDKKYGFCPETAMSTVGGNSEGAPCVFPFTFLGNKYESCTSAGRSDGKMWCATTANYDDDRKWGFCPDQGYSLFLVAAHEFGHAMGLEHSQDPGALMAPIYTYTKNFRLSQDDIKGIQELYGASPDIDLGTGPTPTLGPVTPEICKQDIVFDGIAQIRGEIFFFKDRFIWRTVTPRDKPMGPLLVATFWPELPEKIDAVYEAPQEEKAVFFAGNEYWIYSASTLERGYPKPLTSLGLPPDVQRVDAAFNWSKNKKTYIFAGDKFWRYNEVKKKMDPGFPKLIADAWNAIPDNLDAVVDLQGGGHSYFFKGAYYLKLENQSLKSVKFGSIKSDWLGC
Put plainly: MMP2 Inhibitor Screening Assay Kit (ab139446), colorimetric thiopeptide substrate, OD412. As to conditions: for inhibition at 0.5 µM / remaining activity at 0.5 µM: T-23~34 at 0.5 uM; for inhibition at 0.5 µM / inhibition at 10 µM: read-out: MMP-2 (%) (inhibitory efficacy, high concentration); for remaining activity at 0.5 µM / remaining activity at 10 µM: remaining enzyme activity, read-out: MMP-2 (%) (enzyme activity, high concentration); for inhibition at 10 µM / remaining activity at 10 µM: T-05~20 at 10 uM.

The target in assay [4] is T2, MMP-2. The description is as above. Conditions: compound at 50 nM; for remaining activity at 0.05 µM: remaining enzyme activity, untreated group = 100%, n=2. On the procedure:
Enzyme activity (%) at the same concentration was compared with treatment with 0.5 µM MMP-1 activity and 50 nM MMP-2 and MMP-9 activity (n=2). Here, enzyme activity (%) refers to the enzyme activity (%) of the experimental group when the untreated group is considered to have 100% enzyme activity. To evaluate the effect of the new compound on the enzyme activity, the color change was measured by following the provided protocol using a kit sold by Abchem as follows. […] Therefore, the change in OD412 level (OD value) per minute was measured and the value was obtained according to the enzyme activity calculation formula below. […] (ε=13,600 M^-1cm^-1 above pH 6.0) New compound enzyme activity(%) = (Vnew compound/Vuntreated group)*100 [formula] V = change in OD value per minute

The target of assay [5] is T3, MMP-1 (Homo sapiens, UniProt P03956).
T3 construct: purchased Abchem (so in the source)
T3 sequence (P03956 100-269 limits assumed): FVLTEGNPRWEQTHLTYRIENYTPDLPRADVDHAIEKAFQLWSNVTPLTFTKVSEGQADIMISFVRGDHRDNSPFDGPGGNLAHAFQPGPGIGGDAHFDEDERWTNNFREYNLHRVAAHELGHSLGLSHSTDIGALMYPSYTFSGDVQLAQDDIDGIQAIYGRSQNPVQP
Put plainly: MMP1 Inhibitor Screening Assay Kit (ab139443), colorimetric thiopeptide substrate, OD412. Conditions: for inhibition at 5 µM / remaining activity at 5 µM: T-23~34 at 5 uM; for inhibition at 5 µM / inhibition at 10 µM: read-out: MMP-1 (%) (inhibitory efficacy, high concentration); for remaining activity at 0.5 µM / remaining activity at 5 µM / remaining activity at 10 µM: remaining enzyme activity; for remaining activity at 0.5 µM: untreated group = 100%, n=2; for remaining activity at 5 µM / remaining activity at 10 µM: read-out: MMP-1 (%) (enzyme activity, high concentration); for inhibition at 10 µM / remaining activity at 10 µM: T-05~20 at 10 uM. On the procedure: Enzyme activity (%) at the same concentration was compared with treatment with 0.5 µM MMP-1 activity and 50 nM MMP-2 and MMP-9 activity (n=2). Here, enzyme activity (%) refers to the enzyme activity (%) of the experimental group when the untreated group is considered to have 100% enzyme activity.
To evaluate the effect of the new compound on the enzyme activity, the color change was measured by following the provided protocol using a kit sold by Abchem as follows.
As MMP activity increases, the substrate is decomposed and the OD412 level increases. Therefore, the change in OD412 level (OD value) per minute was measured and the value was obtained according to the enzyme activity calculation formula below. […] (ε=13,600 M^-1cm^-1 above pH 6.0)
New compound enzyme activity(%) = (Vnew compound/Vuntreated group)*100 [formula] V = change in OD value per minute

SMILES strings stand for the structures.

T1 sequence (P14780 94-707): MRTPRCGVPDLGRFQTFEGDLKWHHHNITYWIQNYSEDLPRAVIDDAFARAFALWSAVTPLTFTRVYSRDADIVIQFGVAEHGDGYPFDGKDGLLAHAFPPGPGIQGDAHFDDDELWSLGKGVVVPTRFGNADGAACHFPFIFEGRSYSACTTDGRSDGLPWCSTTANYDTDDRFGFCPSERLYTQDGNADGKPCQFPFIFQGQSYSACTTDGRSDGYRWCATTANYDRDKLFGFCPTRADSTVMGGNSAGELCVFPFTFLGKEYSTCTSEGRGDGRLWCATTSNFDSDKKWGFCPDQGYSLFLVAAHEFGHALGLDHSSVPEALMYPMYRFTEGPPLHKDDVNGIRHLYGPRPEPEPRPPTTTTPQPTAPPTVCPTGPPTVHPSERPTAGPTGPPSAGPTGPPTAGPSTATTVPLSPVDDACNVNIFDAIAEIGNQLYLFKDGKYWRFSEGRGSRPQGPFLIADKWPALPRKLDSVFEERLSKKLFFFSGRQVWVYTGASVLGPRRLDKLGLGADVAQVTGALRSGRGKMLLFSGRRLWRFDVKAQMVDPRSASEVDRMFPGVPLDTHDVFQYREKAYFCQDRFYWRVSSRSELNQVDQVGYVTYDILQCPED

As for `O=C(NO)C1CCCN1S(=O)(=O)c1ccc(C23CC4CC(CC(C4)C2)C3)cc1` (centres unmarked) [T-32, 1-((4-((3r,5r,7r)-adamantan-1-yl)phenyl)sulfonyl)-N-hydroxypyrrolidine-2-carboxamide], the remaining activity at 0.05 µM in assay [1] and in assay [4] was 100% each time. Besides, the figures for the inhibition at 0.5 µM in assay [2] and in assay [3] were 11.9% and 7.6%, respectively. For the same molecule, the remaining activity at 0.5 µM in assay [2] worked out at 88.1%; in assay [3] it was 92.4%; in assay [5] (compound at 0.5 uM) it was 100%. For the same molecule, the inhibition at 5 µM in assay [5] (inhibition) was 0%. The remaining activity at 5 µM in assay [5] was determined as 100%.

In the case of `O=C(NO)C1CCCCN1S(=O)(=O)c1ccc(C23CC4CC(CC(C4)C2)C3)cc1` (centres unmarked) [T-23, 1-((4-((3r,5r,7r)-adamantan-1-yl)phenyl)sulfonyl)-N-hydroxypiperidine-2-carboxamide], the remaining activity at 0.05 µM in assay [1] and in assay [4] was 100% in each case. The inhibition at 0.5 µM in assay [2] and in assay [3] was 0% in each case. The remaining activity at 0.5 µM in assay [2], in assay [3] and in assay [5] (compound at 0.5 uM) was 100% throughout. The inhibition at 5 µM in assay [5] (inhibition) was 0%. Also, the remaining activity at 5 µM in assay [5] was 100%.

On to `CC(=O)c1ccc(S(=O)(=O)N2CCCC2C(=O)NO)cc1` (centres unmarked) [T-34, 1-((4-acetylphenyl)sulfonyl)-N-hydroxypyrrolidine-2-carboxamide], for which the remaining activity at 0.05 µM in assay [1] and in assay [4] was 100% each time. In addition, the inhibition at 0.5 µM was found to be 30.1% in assay [2] and 37.8% in assay [3]. Moreover, the figures for the remaining activity at 0.5 µM in assay [2], in assay [3] and in assay [5] (compound at 0.5 uM) were 69.9%, 62.2% and 100%, respectively. In addition, in assay [5] (inhibition), the inhibition at 5 µM came out at 58.2%. The remaining activity at 5 µM in assay [5] was 41.8%.

As for `CC(C)(C)c1ccc(S(=O)(=O)N2CCCC2C(=O)NO)cc1` (centres unmarked) [T-28, 1-((4-(tert-butyl)phenyl)sulfonyl)-N-hydroxypyrrolidine-2-carboxamide], the remaining activity at 0.05 µM in assay [1] and in assay [4] was 100% in each case. Further, the inhibition at 0.5 µM in assay [2] and in assay [3] was 0% each time. The remaining activity at 0.5 µM in assay [2], in assay [3] and in assay [5] (compound at 0.5 uM) was 100% throughout. In addition, the inhibition at 5 µM in assay [5] (inhibition) was found to be 0%. Also, the remaining activity at 5 µM in assay [5] was determined as 100%.

In the case of `CCCc1ccc(S(=O)(=O)N2CCCC2C(=O)NO)cc1` (centres unmarked) [T-33, N-hydroxy-1-((4-propylphenyl)sulfonyl)pyrrolidine-2-carboxamide], the inhibition at 0.05 µM in assay [1] (inhibition, read-out: MMP-9 (%) at 50 nM (inhibitory activity)) is 0%. The results for the remaining activity at 0.05 µM in assay [1] and in assay [4] were 100% and 90.5%, respectively. The inhibition at 0.5 µM turned out to be 22.2% in assay [2] and 26.3% in assay [3]. In addition, the remaining activity at 0.5 µM in assay [2] stood at 77.8%; in assay [3] it was 73.7%; in assay [5] (compound at 0.5 uM), 100%. For the same molecule, the inhibition at 5 µM in assay [5] (inhibition) was 26.1%. Further, the remaining activity at 5 µM in assay [5] turned out to be 73.9%.

Take `CC(C)C(NS(=O)(=O)c1ccc(C(C)(C)C)cc1)C(=O)NO` (centres unmarked) [T-18, 2-((4-(tert-butyl)phenyl)sulfonamido)-N-hydroxy-3-methylbutanamide]: the figures for the remaining activity at 0.05 µM in assay [1] and in assay [4] were 100% and 99.9%, respectively. Also, the inhibition at 10 µM in assay [3] and in assay [5] (inhibition) was 0% each time. Moreover, the remaining activity at 10 µM in assay [3] and in assay [5] was 100% throughout. Further, the remaining activity at 0.5 µM in assay [5] (compound at 0.5 uM) came out at 100%.

For `CC(=O)Nc1ccc(S(=O)(=O)N2CCCCC2C(=O)NO)cc1` (centres unmarked) [T-25, 1-((4-acetamidophenyl)sulfonyl)-N-hydroxypiperidine-2-carboxamide], the remaining activity at 0.05 µM in assay [1] and in assay [4] was 100% in each case. The inhibition at 0.5 µM amounted to 20.6% in assay [2]; 38.3% in assay [3]; 0% in assay [5] (inhibition, compound at 0.5 uM, read-out: MMP-1 (%) at 0.5 uM (inhibitory activity)). The remaining activity at 0.5 µM in assay [2] turned out to be 79.4%; in assay [3], 61.7%; in assay [5] (compound at 0.5 uM), 100%. For the same molecule, in assay [4] (inhibition, read-out: MMP-2 (%) at 50 nM (inhibitory activity)), the inhibition at 0.05 µM came out at 0%. In addition, the inhibition at 5 µM in assay [5] (inhibition) was 14.2%. Besides, the remaining activity at 5 µM in assay [5] amounted to 85.8%.

With `Cc1cc(C)c(S(=O)(=O)N2CCCCC2C(=O)NO)c(C)c1` (centres unmarked) [T-05, N-hydroxy-1-(mesitylsulfonyl)piperidine-2-carboxamide], the remaining activity at 0.05 µM in assay [1] and in assay [4] was 100% in each case. The inhibition at 10 µM in assay [3] stood at 15.8%; in assay [5] (inhibition), 8.3%. Besides, the remaining activity at 10 µM amounted to 84.2% in assay [3] and 91.7% in assay [5]. The molecule also showed a remaining activity at 0.5 µM in assay [5] (compound at 0.5 uM) of 100%.

The values above are taken from patent EP4692062A1, “NOVEL AMIDE-BASED COMPOUND AND COMPOSITION COMPRISING SAME” (Amorepacific Corporation, priority 2023, dated 2024).
